Experimental data from patent publication US11795197B2, “Peptide compositions for immuno-oncology molecular imaging and targeted drug delivery” (Cedars-Sinai Medical Center, priority 2017, dated 2023).
Residues, ends and D or L forms follow the SMILES beside them. No end group written: not given here. K(CB-TE2A) = lysine carrying the CB-TE2A chelator (for 64Cu); Cy7 = near-infrared fluorescent dye for NIRF imaging; PEGn = polyethylene glycol (n units) spacer

Assays:
MDA-MB-231 cells [1] = test: Cellular uptake of FPR peptide by near infrared fluorescence imaging; assay type: cell-based, human; settings: 3 hrs, 5 and 10 μM/mL, FIG. 4
Protocol: (§1) To study the ability of the FPR peptide to internalize and fluorescently labeled cancer and macrophage cells, various breast cancer cell lines were treated with the peptide (5 uMol/uL) for 4 hrs. […] Fluorescence uptake was not observed in the normal human mammary epithelial cells (HEMC-control), as expected, since there is no expression of FPR receptor for HEMC.
(§2) LDLLDL-Cy7 ([SEQ ID NO:1]-Cy7) was used to treat five cancer cell lineages (MDA-MB-231, BT549, HCC1500, BT474, and MCF-7) and normal human mammary epithelial cell (HEMC) for 3 hrs at the concentrations of 5 and 10 μM/mL. After washing 3 times with cold PBS, all cells were imaged using near infrared fluorescence imaging and target specificity of the FPR peptide was evaluated.

BT474 cells [2] = test: as above; assay type: cell-based, human
Protocol: as §1, §2

HCC1500 cells = test: as above; assay type: cell-based, human
Protocol: as §1, §2

MCF-7 cells [3] = test: as above; assay type: cell-based, human; settings: 3 hrs, 5 and 10 μM/mL, FIG. 4
Protocol: as §1, §2

[4] = system: 4T1 breast cancer tumor xenograph; test: In vivo fluorescence imaging in tumor xenograph mice; parameters: species or system Balb/c mice; settings: 30 ul of peptide (2 nMoles), within 6 hr, mammary gland tumors
Protocol: FIG. 10 depicts one of 10 mice experiments in accordance with various embodiments. Ten mice (Balb/c mice) were implanted with breast cancer cells (4T1) to develop breast cancer tumor xenograph model. The tumors were allowed to grow for 4 weeks before the mice were injected with 30 ul of peptide (2 nMoles). The animals were imaged using mouse fluorescence imaging after 1, 2, 3, 4, 6 hr.

[5] = system: MDA-MB-231 breast cancer tumor xenograph; test: In vivo fluorescence imaging and organ biodistribution in tumor xenograph mice
Protocol: FIG. 5 depicts in accordance with various embodiments of the invention, in vivo fluorescent image of xenograft mice after 6 hours of tail vein injection. Mice were injected with fluorescent dye (Cy7) only (left panel), and peptide-Cy7 (right panel).
FIG. 6 depicts in accordance with various embodiments of the invention, the biodistribution in tumor-bearing mice after 7 hours of tail vein injection. Mice were injected with fluorescent dye only (left panel), and peptide LDLLDL-Cy7 (right panel)([SEQ ID NO:1]-Cy7).
Ten mice were implanted with breast cancer cells (MDA-MB-231) to develop breast cancer tumor xenograph models. The tumors were allowed to grow for 4 weeks before the mice were injected with 30 ul of peptide (2 nMoles). The animals were imaged using mouse fluorescence imaging after 1, 2, 3, 4, and 6 hours. FIG. 5 show the results of one of those mice experiments. […] After 7 hours the animals were sacrificed and organs extracted and imaged.

[6] = system: E0771 breast cancer tumor xenograph; test: In vivo fluorescence imaging in tumor xenograph mice; parameters: species or system C57BL/6 mice; settings: 30 ul of peptide (2 nMoles), within 6 hr, rear bilateral flank tumors
Protocol: FIG. 9 depicts one of 10 mice experiments in accordance with various embodiments. Ten mice (C57BL/6 mice) were implanted with breast cancer cells (E0771) to develop breast cancer tumor xenograph model. The tumors were allowed to grow for 4 weeks before the mice were injected with 30 ul of peptide (2 nMoles). The animals were imaged using mouse fluorescence imaging after 1, 2, 3, 4, 6 hr.

[7] = system: normal human mammary epithelial cell (HEMC); test: Cellular uptake of FPR peptide by near infrared fluorescence imaging; assay type: cell-based
Protocol: as §1, §2

[8] = system: macrophage cell line RAW264.7; test: as above; assay type: cell-based; settings: peptide 5 uMol/uL, 4 hrs
Protocol: as §1

human TNBC cells = test: Target specificity of the FPR peptide by near infrared fluorescence imaging; assay type: cell-based; settings: 3 hrs, 5 and 10 μM/mL
Protocol: as §2

tumor-expressing ANXA1 = test: In vitro target binding specificity in breast cancer cell models; assay type: cell-based; settings: human breast cancer cell models
Protocol: In vitro target specificity binding is evaluated in two steps: Step 1: Characterize the ANXA1/FPR1 expression baseline by examining expression levels of FPR1 and ANXA1 in five human breast cancer cell lines, MDA-MB-231, HCC1500, BT549, MCF-7, BT474, and HEMC. Obtaining protein expression by performing IHC staining using the anti-ANXA1 and anti-FPR1 antibody. The cell lines with positive staining are identified. Further, the […] of ANXA1 and FPR1 are evaluated by western blotting and qRT-PCR. The correlation between FPR1 and ANXA1 are validated, and the cells with highest FPR1 and ANXA1 expression are selected for further in vivo study. The results establish the baseline of expression of ANXA1 and FPR1 in the tested breast cancer cell lines.
Step 2: Characterization of the binding specificity of the LDLLDL-^64Cu ([SEQ ID NO:1]-^64Cu) is tested on the cell lines described above. The cells are cultured in two groups of Petri dishes. […] The suspended cells are measured for radioactivity using a gamma-counter. Disintegrations per minute per cell are calculated and reported as the peptide uptake for each cell line. […] The cell-associated radioactivity is measured, and the binding affinity is determined by the Grafit software (Erithacus, Inc). […]

[9] = system: ANXA1-knockdown breast cancer xenograft; test: PET uptake in ANXA1-knockdown xenograft model; assay type: in vivo, mice
Excerpt: Without being bound to any particular theory, the inventors believe that ANXA1 is associated with tumorigenesis and progression, and the synthesized peptide imaging probe can be used as a surrogate for monitoring the tumor expression with ANXAL. To characterize target specificity, the inventors developed the breast cancer xenograft model with ANXA1 overexpression as well as an ANXA1-knockdown model using a shRNA lentiviral vector technique. […] The inventors assess the pharmacokinetic profile and tumor specific targeting potency of the new imaging probe, and its effectiveness in evaluation of tumorigenesis and progression of aggressive breast cancer. See FIG. 8 for experimental design. […]
Evaluation of tumor uptake in ANXA1 knockdown xenograft model: The inventors evaluate the effects of ANXA1 in regulating tumorigenesis and progression using the ANXA1-KD/control breast cancer xenograft model. […] Tumor growth and/or progression of the disease is monitored up to 8 weeks after cell inoculation. […] On completion of PET/CT at 24 h after injection, a tissue radioactivity assay is performed, and tissue radioactivity is calculated and expressed as decay-corrected percentage injected dose per gram of tissue (% ID/g). The tumor radioactivity and size are compared between ANXA1-KD tumor and ANXA1-SCR tumor. […]

[10] = system: xenograft breast cancer model with ANXA1 overexpression; test: PET uptake in breast cancer xenograft model with ANXA1 overexpression; assay type: in vivo, mice
Excerpt: Without being bound to any particular theory, the inventors believe that ANXA1 is associated with tumorigenesis and progression, and the synthesized peptide imaging probe can be used as a surrogate for monitoring the tumor expression with ANXAL. To characterize target specificity, the inventors developed the breast cancer xenograft model with ANXA1 overexpression as well as an ANXA1-knockdown model using a shRNA lentiviral vector technique. […] The inventors assess the pharmacokinetic profile and tumor specific targeting potency of the new imaging probe, and its effectiveness in evaluation of tumorigenesis and progression of aggressive breast cancer. See FIG. 8 for experimental design.
Breast cancer xenograft model: In vitro studies described above identified the expression of ANXA1/FPR1 for all tested cells. […] Body weight and tumor volume is measured weekly. […]
Blood clearance and biodistribution: i) Blood clearance: After anesthesia (isoflurane 2-3%), 2 groups of 5 mice each are injected with radiolabeled LDLLDL-^64Cu ([SEQ ID NO:1]-^64Cu) (˜5 μCi) via tail vein. Retro-orbital blood samples (25 μL) are collected at various time points such as 5, 15, 30, 60, 120, 240 min and 24 h after injection and radioactivity of all samples are counted in a gamma counter (Perkin-Elmer). […] At 1 h, 2 h, 4 h, 24 h after injection, mice are scanned by small-animal PET followed by tissue radioactivity assay. […]

[11] = Solubility of the peptide; assay type: physicochemical
BT549 cells = test: Cellular toxicity of LDLLDL peptide by microscopy; assay type: cell-based, human; settings: 0.1-1000 μM/mL, up to highest concentration tested
Excerpt: (§3) A FPR-targeted peptide and its optical imaging probe were designed and synthesized: The inventors synthesized an FPR-targeted peptide agent Leu-Asp-Leu-Leu-Asp-Leu (LDLLDL: SEQ ID NO:1), which is an antagonist peptide for FPR1 receptor. The inventors have also developed an NIR optical imaging probe to evaluate the targeting capability. Specifically, the base peptide ligand was synthesized by the solid-phase method. After the peptide sequence was assembled on resin, the ivDDE protecting group was removed from the w-amino group of the lysine by treatment with hydrazine. The inventors tested varying concentrations (0.1-1000 μM/mL) of LDLLDL (SEQ ID NO:1) peptide in all four breast cancer cell types (BT474, BT549, MDA-MB-231 and MCF-7) to assess cellular toxicity.

MDA-MB-231 cells [12] = test: Cellular toxicity of LDLLDL peptide by microscopy; assay type: cell-based, human; settings: 0.1-1000 μM/mL, up to highest concentration tested
Excerpt: as §3

BT474 cells [13] = test: Cellular toxicity of LDLLDL peptide by microscopy; assay type: cell-based, human; settings: 0.1-1000 μM/mL, up to highest concentration tested
Excerpt: as §3

MCF-7 cells [14] = test: Cellular toxicity of LDLLDL peptide by microscopy; assay type: cell-based, human; settings: 0.1-1000 μM/mL, up to highest concentration tested
Excerpt: as §3

[15] = organs extracted after 7 hours, FIG. 6

In the case of LDLLDL-Cy7, the “uptake of LDLLDL-Cy7” value (MDA-MB-231 cells [1]) is reported as “substantial uptake”, the “uptake of LDLLDL-Cy7” value (BT474 cells [2]; 3 hrs, 5 and 10 μM/mL, FIG. 4) is reported as “weak uptake” and the cell associated fluorescence (BT474 cells [2]; peptide 5 uMol/uL, 4 hrs, Her2 line) is reported as “cell associated fluorescence”. For the same compound, the “uptake of LDLLDL-Cy7” value (HCC1500 cells; 3 hrs, 5 and 10 μM/mL, FIG. 4) was “substantial uptake”, the cell associated fluorescence (HCC1500 cells; peptide 5 uMol/uL, 4 hrs, ER-positive luminal line) was “cell associated fluorescence” and the “uptake of LDLLDL-Cy7” value (MCF-7 cells [3]) was “weak uptake”. The “fluorescence in the implanted tumors” value [4] was “intense fluorescence”, the “fluorescence in the rest of the organs” value [5, 15] was “no significant fluorescence” and the “uptake in the tumors (extracted organs imaged)” value [5, 15] was “strong uptake”. The “fluorescence in the implanted tumors” value ([5]; tail vein injection, 6 hours after injection, FIG. 5) was “intense fluorescence”, the “fluorescence in the implanted tumors” value [6] was “intense fluorescence” and the “fluorescence uptake of LDLLDL-Cy7” value ([7]; 3 hrs, 5 and 10 μM/mL, FIG. 4) was “no fluorescence uptake”. For the same compound, the fluorescence uptake ([7]; peptide 5 uMol/uL, 4 hrs, control without FPR expression) was “not observed”, the “uptake of the peptide” value [8] was “substantial uptake” and the binding affinity (human TNBC cells) was “High binding affinity”.
In the case of “LDLLDL-^64Cu (LDLLDL-{PEGn-K(CB-TE2A)}; also: 64Cu chelated by CB-TE2A)”, the “targeting specificity and sensitivity” value (tumor-expressing ANXA1) is reported as “excellent specificity and sensitivity”, the “uptake of the peptide” value [9] is reported as “reduced uptake” and the “uptake in PET image studies” value [10] is reported as “significantly high uptake”.
With `CC(C)C[C@H](NC(=O)[C@H](CC(=O)O)NC(=O)[C@H](CC(C)C)NC(=O)[C@H](CC(C)C)NC(=O)[C@H](CC(=O)O)NC(=O)[C@@H](N)CC(C)C)C(=O)O` [LDLLDL, Leu-Asp-Leu-Leu-Asp-Leu] (H-LDLLDL-OH; N-terminus and C-terminus assumed) the solubility [11] was “superior”, the “cellular toxicity (cell death by microscopy)” value (“cellular toxicity” below) (BT549 cells) was “Apparent cell death could not be observed” and the “cellular toxicity” value (MDA-MB-231 cells [12]) was “Apparent cell death could not be observed”. The “cellular toxicity” value (BT474 cells [13]) was “Apparent cell death could not be observed” and the “cellular toxicity” value (MCF-7 cells [14]) was “Apparent cell death could not be observed”.
